Like-named read-outs stand apart in the source and are kept apart here.
How the values were obtained:
[1] = test system: SARS-CoV-2 (WA1/2020 strain); assay: Virus yield reduction (VYR) assay, SARS-CoV-2 in Vero76 cells; assay type: cell-based; settings: for EC90: Vero76 cells
[2] = test system: SARS-CoV-2 (WA1/2020 isolate); assay: SARS-CoV-2 hamster model of infection; settings: for lung tissue histopathology (total histology score) vs vehicle control: Days +3 and +7; for lung viral burden lower than vehicle control: 100 mg/kg BID i.p., Day 3 post-infection
[3] = human, in vivo
[4] = Phase 1 single ascending dose study, intravenous administration in healthy human subjects; assay type: in vivo; settings: for AUC0-inf / AUC24 / CL / Cmax / Vz / t1/2 / AUCt: geometric mean, preliminary; for AUCt: t 120 h to 480 h
Protocol: The agent used in this Example was compound A (the compound of formula I, where A is NH2 and B is H as the HCL salt). A phase 1 double-blind, placebo-controlled, single ascending dose study was conducted to evaluate the safety, tolerability, and pharmacokinetics of Compound A administered by intravenous (IV) administration in healthy human subjects. Four cohorts were administered the study drug at the following doses: 5 mg/kg, 10 mg/kg, 15 mg/kg, and 20 mg/kg. Eight subjects received a single IV dose per cohort (6 subjects received Compound A; 2 subjects received matching placebo). Subject dosing was staggered as a safety precaution.
The plasma PK concentration-time profile of Compound A at all doses was characterized by an initial rapid distribution and clearance phase, and a slow terminal clearance phase. […] The inter-subject variability in exposure (Cmax and AUC) was low, as reflected in the geometric mean coefficients of variance (CVs) on these parameters. No subjects met any stopping criteria for any cohort.

SARS-CoV (Urbani strain) = assay type: cell-based; settings: Vero-76 cells
[5] = human, in vivo; remark: listed apart in the source
NOAEL exposure in NHP = assay type: in vivo; settings: 30 mg/kg dose
SARS-CoV-2 = assay: Randomized placebo-controlled dose-ranging study, IV infusion in hospitalized adults with COVID-19 (Part 1)
MERS-CoV (Jordan strain) = assay type: cell-based; settings: Vero-76 cells
[6] = human, in vivo; remark: listed apart in the source
[7] = EC50 adjusted with CLE, read-out: Adjusted EC50
[8] = NR uptake, MOI 0.001, 3 days, read-out: EC50

## Nc1ncnc2c([C@@H]3N[C@H](CO)[C@@H](O)[C@H]3O)c[nH]c12 [Compound A]
[1]; EC90 adjusted with CLE, read-out: Adjusted EC90
  EC90: 0.87 µM
[1]; SI=CC50/EC90, Vero76 cells
  SI: >27
[1]; VYR at day 3, MOI 0.002, compound added 24 hours prior to infection, read-out: EC90
  EC90: 10.9 µM
[2]; Group 1 (first dose −24 hours)
  lung tissue histopathology (total histology score) vs vehicle control: reduced/no tissue histopathology as compared with vehicle control
[2]; Group 1, 100 mg/kg BID i.p., first dose −24 hr
  animals that achieved PFU<10 (lower limit of quantification) in OP swabs: 62.5%
[2]; Group 1, 100 mg/kg BID i.p., first dose −24 hr relative to infection
  weight loss: < 5%
[2]; Group 2 (first dose +1.5 hours)
  lung tissue histopathology (total histology score) vs vehicle control: reductions relative to vehicle control
[2]; Group 3 (first dose +24 hours)
  lung viral burden lower than vehicle control: ~0.66 log
[2]; Groups 1-3, 100 mg/kg BID i.p.
  clinical scores, adverse impact of dosing: no adverse impact
[2]; Groups 1 and 2 (first dose −24 and +1.5 hours)
  lung viral burden lower than vehicle control: 1.4-1.6 log
[3]
  safety and tolerability: generally safe and well tolerated
[4]; single IV dose 5 mg/kg
  AUC0-inf: 21200 ng·h/mL
  AUC24: 10950 ng·h/mL
  CL: 17.1 L/h
  Cmax: 5540 ng/mL
  Vz: 2725 L
  t1/2: 111 h
  AUCt: 17100 ng·h/mL
[4]; single IV dose 10 mg/kg
  AUC0-inf: 37100 ng·h/mL
  AUC24: 21070 ng·h/mL
  CL: 20.7 L/h
  Cmax: 10300 ng/mL
  Vz: 3049 L
  t1/2: 114.5 h
  AUCt: 32400 ng·h/mL
[4]; single IV dose 15 mg/kg
  AUC0-inf: 65900 ng·h/mL
  AUC24: 34370 ng·h/mL
  CL: 16.7 L/h
  Cmax: 17700 ng/mL
  Vz: 4138 L
  t1/2: 182.5 h
  AUCt: 59900 ng·h/mL
[4]; single IV dose 20 mg/kg
  AUC0-inf: 81200 ng·h/mL
  AUC24: 44770 ng·h/mL
  CL: 17.9 L/h
  Cmax: 20500 ng/mL
  Vz: 4010 L
  t1/2: 133.5 h
  AUCt: 73400 ng·h/mL
[4]; single IV dose 5-20 mg/kg, healthy subjects
  safety and tolerability: generally safe and well tolerated
[4]; single IV doses 5-20 mg/kg
  dose proportionality of Cmax, AUCt and AUCinf: increased in dose-proportional manner
SARS-CoV (Urbani strain); [7]
  EC50: 4.6 µM
SARS-CoV (Urbani strain); [8]
  EC50: 57.7 µM
[5]
  safety and tolerability: generally safe and well tolerated
NOAEL exposure in NHP
  NOAEL exposure: approximately 52,500 ng*h/mL
SARS-CoV-2; Cohorts 1-3, IV loading/maintenance regimens for 7 days, hospitalized COVID-19 patients
  safety and tolerability: safe and generally well tolerated
SARS-CoV-2; Cohorts 1-3, Part 1 not sized for efficacy
  clinical efficacy compared to placebo: no clinical efficacy benefit
SARS-CoV-2; Cohorts 1-3, apparent dose-dependent manner
  decline in viral RNA levels in the respiratory tract: more rapid decline in viral RNA levels in the respiratory tract
SARS-CoV-2; Cohorts 1-3, shortest in Cohorts 2 and 3
  time to a negative viral RNA result in LRT samples compared to placebo: shorter time to a negative viral RNA result
MERS-CoV (Jordan strain); [7]
  EC50: 2.15 µM
MERS-CoV (Jordan strain); [8]
  EC50: 26.9 µM
[6]
  dose proportionality of exposure: dose-proportional and linear with increasing dose
  safety and tolerability: generally safe and well tolerated
  time after administration at which plasma concentrations were maximal: 1 to 2 h
[6]; im
  increase in exposure (AUC) with repeat dosing: approximately 1.5 fold
[6]; im, 2.5 mg/kg
  t1/2: 104 (15.9) h
[6]; im, 5 mg/kg
  t1/2: 85.7 (17.3) h
[6]; im, 10 mg/kg
  AUC0-24: 20300 ng·h/mL
  AUCtau: 34500 ng·h/mL
  Cmax: 7980 ng/mL
  Tmax: 0.375 h
  t1/2: 113 (26.4) h
Vero76 cells
  CC50: > 296 µM

Source: patent US12472197B2 (priority 2020, dated 2025)
